Test results from patent publication US9393316B2, “Cancer targeting peptides for enhancing anti-cancer drug delivery and therapeutic efficiencies” (priority 2014, dated 2016).
One block for each substance: values may come before it. Where no end group is shown, it is not given here.

Columns and labels:
HCT116 cells [1] = assay: Flow cytometry binding of biotinylated pHCT74 peptide; set-up: species or system human
Protocol: We propose the use of biotinylated pHCT74 peptide and a chemical cross-linker, DTSSP, to identify the unknown target protein on the plasma membrane of HCT116 cells. A biotin molecule was conjugated to the C terminus of synthetic pHCT74 peptide. The binding characteristics of biotinylated pHCT74 peptide to HCT116 cells were evaluated by flow cytometry for analyzing the concentration dependency of the binding (FIG. 4B). […] The membrane proteins of HCT116 cells were bound with biotin-pHCT74 peptide, cross-linked by DTSSP; followed by SDS-PAGE separation and LC/MS/MS analysis. A sharp bands was detected by silver staining (FIG. 4C), and subsequently analyzed by LC/MS/MS after tryptic digestion. Twelve tryptic peptides were identified as alpha-enolase (ENO1) fragments by search algorithms based on MASCOT software. Coverage of the identified peptides was 57% of the alpha-enolase sequence and the probability score was 424 (FIG. 4D).

HCT116 cells [2] = assay: ELISA screening of phage clones on HCT116 cells (cellular ELISA); format: binding, human; details: HCT116, cell line panel
Protocol: (§1) The selected phages were further identified by ELISA screening. 1×10^4 cells were seeded into each well of 96-well ELISA plates (Falcon, Calif., USA) overnight and were fixed with 2% paraformaldehyde or methanol/acetone (1:1) for 10 min at RT. The plates were washed twice with PBS and were blocked with 1% BSA in PBS (w/v) for 30 min at RT. Then individual phage clones were added and incubated for 1 hr at RT. Following washing three times with PBS, the plates were incubated with horseradish peroxidase (HRP)-conjugated mouse anti-M13 phage antibody (GE Healthcare) at 1:2000 dilution for 1 hr at RT. The plates were washed three times with PBS again, and were subsequently incubated with the peroxidase substrate o-phenylenediamine dihydrochloride (OPD; Sigma) plus H2O2. The reaction was terminated by 3 N HCl, and the absorbance was measured using microplate reader (Model 680, BioRad) at 490 nm.

COLO205 = assay: Flow cytometry surface binding of phage clones; set-up: species or system human
Protocol: (§2) Cells were grown to 70-80% confluence and were harvested with 10 mM EDTA in PBS. Peripheral blood mononuclear cells were prepared by using Ficoll-Paque Plus density gradient separation. After washing and suspending the cells with FACS buffer (PBS containing 1% fetal bovine serum), the cells were incubated for 1 hr at 4° C. with 5×10^9, 1×10^9 cfu individual phage clones or control phage, respectively. After washing twice with FACS buffer, cells were incubated with mouse anti-M13 monoclonal antibody (GE Healthcare) at 1:2000 dilution for 1 hr followed by 30 min with phycoerythrin (PE)-conjugated goat anti-mouse secondary antibody (Jackson ImmunoResearch) at 1:250 dilution at 4° C. The emission fluorescence signals were measured using FACSCantoll (Becton Dickinson) and were analyzed by FlowJo software.

HCT116 cells [3] = assay: Flow cytometry surface binding of phage clones; set-up: species or system human
Protocol: as §2

HT29 = assay: Flow cytometry surface binding of phage clones; set-up: species or system human
Protocol: as §2

LS174T = assay: Flow cytometry surface binding of phage clones; set-up: species or system human
Protocol: as §2

SW620 = assay: Flow cytometry surface binding of phage clones; set-up: species or system human
Protocol: as §2

[4] = system: peripheral blood mononuclear cells (PBMC); assay: Flow cytometry binding of phage clones to normal cells; details: human PBMC
Protocol: as §2

HCT116 xenografts [5] = assay: In vivo tumor homing, phage titer in tumor and organs; set-up: species or system mice; details: 2×10^11 pfu i.v., PBS perfusion; vs brain, lungs, heart
Protocol: Non-obese diabetic-severe combined immunodeficiency (NOD/SCID) mice were injected subcutaneously (s.c.) into the dorsolateral flank with 5×10^6 HCT116 cells. When the xenograft tumor size reached 300±50 mm^3, the mice were injected intravascularly (i.v.) with 2×10^11 pfu of the targeting phage or control phage M13KO7. Seven min after injection, the mice were sacrificed and perfused through the heart with 50 mL of PBS to wash unbound phages. After perfusion, xenograft tumor and mouse organs were taken out, washed three times with cold PBS, and cut into pans, with some of them homogenized. The phages bound to each tissue sample were recovered by log-phase Escherichia coli ER2738 culture and were titered on LB/IPTG/X-Gal agar plates. In peptide competitive inhibition experiments, 2×10^9 pfu of phage was co-injected with 100 μg of corresponding peptide or an unrelated control peptide.
To investigate the targeting ability of the selected phage clones in vivo, mice bearing HCT116 xenografts (300 mm^3) were injected with 2×10^11 pfu of either the selected phages or control phage through the tail vein. Phages were circulated and then were perfused with PBS buffer to wash out non-specific binders in circulation. After perfusion, we recovered and determined the […] of phage in tumor masses and normal organs.

HCT116 xenografts [6] = assay: Immunohistochemical localization of phages in xenograft tumor and organs; format: in vivo, mice; details: tumor vs brain, heart, lungs, colon
Protocol: The tissue samples from in vivo phage homing experiment were embedded in frozen blocks. To evaluate the phage distribution in each tissue by immunohistochemistry, the frozen specimens were cut to 8-μm-thick sections and were collected on coated slides. The slides were washed with cold PBS to remove OCT and were fixed with 4% paraformaldehyde for 10 min at RT. To block endogenous peroxidase activity, the slides were soaked with 3% hydrogen peroxide in methanol for 30 min at RT. The nonspecific antibody binding sites were blocked by immersing the section with 1% BSA in PBS for 30 min at RT. The tissue sections were incubated with mouse anti-M13 monoclonal antibody at 1:250 dilution for 1 hr, followed by adding Super Enhancer reagent (Super SENSITIVE™ Polymer HRP Detection System/DAB, BioGenex) for 20 min and Poly-HRP reagent (BioGenex) for 30 min. After washing, the sections were developed with DAB (3,3′-diaminobenzidine) Chromogen (BioGenex) supplemented with Stable DAB buffer. The reaction was stopped by adding PBS. For nuclei staining, the slides were immersed in hematoxylin for 5 min, and were then mounted with mounting solution to terminate the reaction. The images of sections were taken and analyzed using automated acquisition system (TissueGnostics).

1112SK = assay: Cellular ELISA of phage clones; format: binding, human
Protocol: as §1, with “nm. To evaluate the binding activities of the three selected phage clones to various human cancer cell lines, cellular ELISA was performed to detect sixteen types of human cancer cell lines, including A498, HTB-10, B16-F10, SKOV3, PC-3, U2OS, 1112SK, […], SAS, H460, MIA Paca-2, HCT116, HUVAC, CL1-5, Mahlavu, and MDA-MB-231.” for “nm.”

A498 = assay: Cellular ELISA of phage clones; format: binding, human
Protocol: as §1, with “nm. To evaluate the binding activities of the three selected phage clones to various human cancer cell lines, cellular ELISA was performed to detect sixteen types of human cancer cell lines, including A498, HTB-10, B16-F10, SKOV3, PC-3, U2OS, 1112SK, […], SAS, H460, MIA Paca-2, HCT116, HUVAC, CL1-5, Mahlavu, and MDA-MB-231.” for “nm.”

CL1-5 = assay: Cellular ELISA of phage clones; format: binding, human
Protocol: as §1, with “nm. To evaluate the binding activities of the three selected phage clones to various human cancer cell lines, cellular ELISA was performed to detect sixteen types of human cancer cell lines, including A498, HTB-10, B16-F10, SKOV3, PC-3, U2OS, 1112SK, […], SAS, H460, MIA Paca-2, HCT116, HUVAC, CL1-5, Mahlavu, and MDA-MB-231.” for “nm.”

H184 = assay: Cellular ELISA of phage clones; format: binding, human
Protocol: as §1, with “nm. To evaluate the binding activities of the three selected phage clones to various human cancer cell lines, cellular ELISA was performed to detect sixteen types of human cancer cell lines, including A498, HTB-10, B16-F10, SKOV3, PC-3, U2OS, 1112SK, […], SAS, H460, MIA Paca-2, HCT116, HUVAC, CL1-5, Mahlavu, and MDA-MB-231.” for “nm.”

H460 = assay: Cellular ELISA of phage clones; format: binding, human
Protocol: as §1, with “nm. To evaluate the binding activities of the three selected phage clones to various human cancer cell lines, cellular ELISA was performed to detect sixteen types of human cancer cell lines, including A498, HTB-10, B16-F10, SKOV3, PC-3, U2OS, 1112SK, […], SAS, H460, MIA Paca-2, HCT116, HUVAC, CL1-5, Mahlavu, and MDA-MB-231.” for “nm.”

HTB-10 = assay: Cellular ELISA of phage clones; format: binding, human
Protocol: as §1, with “nm. To evaluate the binding activities of the three selected phage clones to various human cancer cell lines, cellular ELISA was performed to detect sixteen types of human cancer cell lines, including A498, HTB-10, B16-F10, SKOV3, PC-3, U2OS, 1112SK, […], SAS, H460, MIA Paca-2, HCT116, HUVAC, CL1-5, Mahlavu, and MDA-MB-231.” for “nm.”

HUVAC = assay: Cellular ELISA of phage clones; format: binding, human
Protocol: as §1, with “nm. To evaluate the binding activities of the three selected phage clones to various human cancer cell lines, cellular ELISA was performed to detect sixteen types of human cancer cell lines, including A498, HTB-10, B16-F10, SKOV3, PC-3, U2OS, 1112SK, […], SAS, H460, MIA Paca-2, HCT116, HUVAC, CL1-5, Mahlavu, and MDA-MB-231.” for “nm.”

MDA-MB-231 = assay: Cellular ELISA of phage clones; format: binding, human
Protocol: as §1, with “nm. To evaluate the binding activities of the three selected phage clones to various human cancer cell lines, cellular ELISA was performed to detect sixteen types of human cancer cell lines, including A498, HTB-10, B16-F10, SKOV3, PC-3, U2OS, 1112SK, […], SAS, H460, MIA Paca-2, HCT116, HUVAC, CL1-5, Mahlavu, and MDA-MB-231.” for “nm.”

MIA Paca-2 = assay: Cellular ELISA of phage clones; format: binding, human
Protocol: as §1, with “nm. To evaluate the binding activities of the three selected phage clones to various human cancer cell lines, cellular ELISA was performed to detect sixteen types of human cancer cell lines, including A498, HTB-10, B16-F10, SKOV3, PC-3, U2OS, 1112SK, […], SAS, H460, MIA Paca-2, HCT116, HUVAC, CL1-5, Mahlavu, and MDA-MB-231.” for “nm.”

Mahlavu = assay: Cellular ELISA of phage clones; format: binding, human
Protocol: as §1, with “nm. To evaluate the binding activities of the three selected phage clones to various human cancer cell lines, cellular ELISA was performed to detect sixteen types of human cancer cell lines, including A498, HTB-10, B16-F10, SKOV3, PC-3, U2OS, 1112SK, […], SAS, H460, MIA Paca-2, HCT116, HUVAC, CL1-5, Mahlavu, and MDA-MB-231.” for “nm.”

PC-3 = assay: Cellular ELISA of phage clones; format: binding, human
Protocol: as §1, with “nm. To evaluate the binding activities of the three selected phage clones to various human cancer cell lines, cellular ELISA was performed to detect sixteen types of human cancer cell lines, including A498, HTB-10, B16-F10, SKOV3, PC-3, U2OS, 1112SK, […], SAS, H460, MIA Paca-2, HCT116, HUVAC, CL1-5, Mahlavu, and MDA-MB-231.” for “nm.”

SAS = assay: Cellular ELISA of phage clones; format: binding, human
Protocol: as §1, with “nm. To evaluate the binding activities of the three selected phage clones to various human cancer cell lines, cellular ELISA was performed to detect sixteen types of human cancer cell lines, including A498, HTB-10, B16-F10, SKOV3, PC-3, U2OS, 1112SK, […], SAS, H460, MIA Paca-2, HCT116, HUVAC, CL1-5, Mahlavu, and MDA-MB-231.” for “nm.”

SKOV3 = assay: Cellular ELISA of phage clones; format: binding, human
Protocol: as §1, with “nm. To evaluate the binding activities of the three selected phage clones to various human cancer cell lines, cellular ELISA was performed to detect sixteen types of human cancer cell lines, including A498, HTB-10, B16-F10, SKOV3, PC-3, U2OS, 1112SK, […], SAS, H460, MIA Paca-2, HCT116, HUVAC, CL1-5, Mahlavu, and MDA-MB-231.” for “nm.”

U2OS = assay: Cellular ELISA of phage clones; format: binding, human
Protocol: as §1, with “nm. To evaluate the binding activities of the three selected phage clones to various human cancer cell lines, cellular ELISA was performed to detect sixteen types of human cancer cell lines, including A498, HTB-10, B16-F10, SKOV3, PC-3, U2OS, 1112SK, […], SAS, H460, MIA Paca-2, HCT116, HUVAC, CL1-5, Mahlavu, and MDA-MB-231.” for “nm.”

B16-F10 = assay: Cellular ELISA of phage clones; format: binding, mouse
Protocol: as §1, with “nm. To evaluate the binding activities of the three selected phage clones to various human cancer cell lines, cellular ELISA was performed to detect sixteen types of human cancer cell lines, including A498, HTB-10, B16-F10, SKOV3, PC-3, U2OS, 1112SK, […], SAS, H460, MIA Paca-2, HCT116, HUVAC, CL1-5, Mahlavu, and MDA-MB-231.” for “nm.”

Substance: biotinylated pHCT74 peptide: synthetic pHCT74 peptide with a biotin molecule conjugated to the C terminus (SSMDIVLRAPLMGGG-biotin)
cell binding activity after C-terminal biotin addition (HCT116 cells [1]): did not affect its cell binding activity

binding activity by FACS (COLO205): weak affinity
binding activity by FACS (HT29): high binding affinity
binding activity by FACS (LS174T): moderate affinity
binding activity by FACS (SW620): high binding affinity
binding by cellular ELISA (1112SK): highly specific binding
binding by cellular ELISA (A498): highly specific binding
binding by cellular ELISA (CL1-5): moderate binding
binding by cellular ELISA (H184): highly specific binding
binding by cellular ELISA (H460): highly specific binding
binding by cellular ELISA (HTB-10): moderate binding
binding by cellular ELISA (HUVAC): highly specific binding
binding by cellular ELISA (MDA-MB-231): highly specific binding
binding by cellular ELISA (MIA Paca-2): highly specific binding
binding by cellular ELISA (Mahlavu): highly specific binding
binding by cellular ELISA (PC-3): highly specific binding
binding by cellular ELISA (SAS): highly specific binding
binding by cellular ELISA (SKOV3): highly specific binding
binding by cellular ELISA (U2OS): highly specific binding
binding by cellular ELISA (B16-F10): highly specific binding
Substance: TSVSIVSTVLTP [HCT69]
binding by cellular ELISA (HCT116 cells [2]): highly specific binding
cell surface-binding activity by flow cytometry (HCT116 cells [3]): high binding affinity
binding activity to PBMC (normal cells) by FACS [4]: not to normal cells
phage accumulation in tumor mass vs normal organs (phage titer) (HCT116 xenografts [5]): significantly accumulated in the tumor mass
phage localization by immunostaining of tissue sections (HCT116 xenografts [6]): selectively localized in tumor tissues
phage localization by immunostaining of tissue sections (HCT116 xenografts [6]; listed as HCT-69): strong accumulated in the tumor
